Measurements: PubChem BioAssay (NCI)
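How tested: cells in 96-well plates exposed to compound for 48 hours at five concentrations. GI50 = concentration required for 50% inhibition of growth. Definition used: TGI = concentration required for complete inhibition of growth.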

How the values were obtained:
Test in all cases: NCI-60 cell line screen, 48 h
[1] = test system: SW-620 colon
[2] = test system: SN12C renal
[3] = test system: DU-145 prostate
[4] = test system: M14 melanoma
[5] = test system: SNB-75 CNS
[6] = test system: OVCAR-8 ovarian
[7] = test system: MCF7 breast
[8] = test system: SK-MEL-2 melanoma
[9] = test system: CCRF-CEM leukemia
[10] = test system: K-562 leukemia

## COc1cc(/C=C2\CCCC3=C2NC(N)=NC3c2cc(OC)c(OC)c(OC)c2)cc(OC)c1OC (stereo not given)
[1]
  GI50: 1.08 µM
  TGI: 3.51 µM
[2]
  GI50: 1.62 µM
  TGI: > 100 µM
[3]
  GI50: 3.36 µM
  TGI: > 100 µM
[4]
  GI50: 0.633 µM
  TGI: 2.91 µM
[5]
  GI50: 8.02 µM
  TGI: > 100 µM
[6]
  GI50: 0.298 µM
  TGI: 12.1 µM
[7]
  GI50: 1.49 µM
  TGI: > 100 µM
[8]
  GI50: 2.08 µM
  TGI: 4.83 µM
[9]
  GI50: 0.419 µM
  TGI: 7.31 µM
[10]
  GI50: 2.15 µM
  TGI: > 100 µM
